According to patent US6624140B1, “Synthetic peptides with antimicrobial and endotoxin neutralizing properties for management of the sepsis syndrome” (Academisch Ziekenhuis Bij de Universiteit van Amsterdam …, priority 1997, dated 2003):
No end group written: not given here.

Legend:
[1] = test system: Escherichia coli serotype 0111:B4; test: Bactericidal activity in liquid culture, E. coli 0111:B4; assay type: cell-based; conditions: for effect on cell-density of Gram-negative bacterial cultures: in words; for % bacteria killed: 10^7 E. coli 0111:B4 bacteria/ml LB medium at 37° C., concentration effective dose 3 (M^−6)
Experimental: (§1) FIGS. 1A and 1B. The effect of synthetic peptides on the survival of E. coli 0111:B4 (panel A) or S. aureus (panel B). Logarithmically growing bacterial cells at a density of 10^7 cells/ml in Luria-Bertani (LB) medium were incubated with synthetic peptides at concentrations of 3, 5 and 7 μg/ml (1, 2 and 3 μM) at 37° C. for 1 h and the residual cell density expressed as a percentage of the value obtained from bacterial cultures without added peptides.
(§2) A peptide encompassing a selected LPS-binding domain from a well characterized human antiendotoxin protein, known as bactericidal/permeability increasing protein (BPI), from amino acids 85 to 102, denoted as BPI(85-102), was included for a direct comparison of the efficacy of the endotoxin-binding domain of a naturally occurring protein and the synthetic peptides of the invention. The amino acid sequence of the BPI(85-102) peptide is:
(§3) The BPI(85-102) reference peptide was synthesized as previously described for peptides of the invention and provided with a C-terminal Cys residue for the purpose of biotinylation as previously described. […] Incubation of various concentrations of the synthetic peptides according to the invention for a limited time period on the survival of both types of bacteria again illustrated their potent anti-microbial activity as opposed to that of the BPI(85-102) peptide (FIG. 1) with the sequence corresponding to that of the potential LPS binding domain of the native BPI protein. This is indicative of a broad specificity of the synthetic peptides, in keeping with the general bactericidal properties of this class of linear amphipathic α-helical peptides. […] The B2 residue in the N-terminal repetitive sequence element in each instance, instead of an aromatic amino acid residue, as specified by the formula of the invention, was replaced with an Ala residue and the hydrophobic (C2)n element made hydrophilic by substitution with Lys and Cys residues.

[2] = test system: IL-6 inducing ability of E. coli 0111:B4 LPS; test: Effect of heparin on neutralization of IL-6 inducing ability of LPS; assay type: cell-based, human; conditions: for reduction of LPS neutralizing efficacy by heparin: same heparin concentration (0.4 U/ml)
Experimental: FIG. 10. Effect of heparin on the efficacy of neutralization of the IL-6 inducing ability of E. coli 0111:B4 LPS by synthetic peptide or Polymyxin B in whole blood diluted 1 in 10. Synthetic peptides at concentrations of 2 μg/ml or PmB at 1 μg/ml was pre-incubated for 30 min at 37° C. with E. coli 0111:B4 LPS at 1 ng/ml in RPMI medium containing heparin in the concentration range of 0.1 to 100 I.U/ml. The residual cytokine inducing ability of the treated endotoxin was determined in diluted whole blood containing heparin at 2 IU/ml after incubation for 16 h at 37° C. Each value is the mean of triplicate determinations corrected for background. Controls contained only LPS.
The endotoxin neutralizing activities of the synthetic peptides of the invention were evaluated by investigating the effect on LPS-stimulated release of the pro-inflammatory cytokines, tumor necrosis factor alpha (TNF-α), interleukin-6 (IL-6) or interleukin-8 (IL-8) in a well characterized in vitro human whole blood bioassay system. In one series of experiments, dilutions of E. coli 0111:B4 LPS from 0.2 to 1 ng/ml were pre-incubated with synthetic peptides at 10 μg/ml concentrations in RPMI medium for 30 min at 20° C. and added to diluted whole blood. Cytokine concentrations in the supernatants were determined after further incubation for 16 h at 37° C. in the presence of 5% CO2 by specific and sensitive ELISA kits (CLB, Amsterdam, The Netherlands). In another series of experiments, the effects of synthetic peptides at concentrations of 2,5, 5 and 10 μg/ml on IL-6 induction by 1 ng/ml 0111:B4 LPS was examined after simultaneous addition of synthetic peptide and LPS to diluted whole blood. […] The control peptide BPI(85-102) was ineffective in reducing cytokine production under these conditions even at a 4-fold higher concentration. This probably reflects the differences in binding affinity for Lipid A of BP1 and BP2 compared with the BPI(85-102) peptide of approximately 5 and 10-fold, respectively. An additional factor which may have influenced binding of the control peptide to endotoxin is the presence of heparin employed as an anti-coagulant at a concentration of […] in the assay system. […] On this basis, it was predicted that the extent of reduction of endotoxin neutralizing efficacy would be a function of the differences in affinity between peptides for endotoxin and heparin. To verify this hypothesis, a series of experiments to determine the effect of increasing heparin concentrations on the efficacy of endotoxin neutralization during pre-incubation of synthetic peptide and E. coli 0111:B4 LPS were performed. FIG. 10 illustrates a dose-dependent suppression of endotoxin neutralizing activity of the synthetic peptides by heparin as exemplified by a reduction of IL-6 inhibition. […]

[3] = test system: Staphylococcus aureus; test: Bactericidal activity in liquid culture, S. aureus; assay type: cell-based; conditions: for effect on cell-density of Gram-positive bacterial cultures: in words; for % bacteria killed: 10^7 S. aureus bacteria/ml LB medium 37° C., concentration effective dose 3 (M^−6)
Experimental: as §1, §2, §3

| Substance | effect on cell-density of Gram-negative bacterial cultures [1] | molar excess of heparin with respect to LPS for 50% competitive inhibition [2] | effect on cell-density of Gram-positive bacterial cultures [3] | % bacteria killed [1] | reduction of LPS neutralizing efficacy by heparin [2] | % bacteria killed [3] |
| --- | --- | --- | --- | --- | --- | --- |
| GKWKLFKKAFKKFLKILAC-OH [BP2, Gly-Lys-Trp-Lys-Leu-Phe-Lys-Lys-Ala-Phe-Lys-Lys-Phe-Leu-Lys-Ile-Leu-Ala-Cys] | dose-dependent reduction | approximately 10,000 fold | dose-dependent reduction |  |  |  |
| Ile-Lys-Ile-Ser-Gly-Lys-Trp-Lys-Ala-Gin-Lys-Arg-Phe-Leu-Lys-Met-Ser-Gly-(Cys) (IKISGKWKAQKRFLKMSGC; listed as Homo sapiens) [BPI(85-102), reference compound] | slight effect |  | no effect | 31% | 80% | 0% |
| GRLRKKWKAFKKFLKILAC [BP1] | dose-dependent reduction |  | dose-dependent reduction | 88% | 75% | 34% |
